Patent publication US6620828B2, “Thiazole compounds and pharmaceutical compositions for inhibiting protein kinases and methods for their use” (Agouron Pharmaceuticals, Inc., priority 1999, dated 2003)

Legend:
Assay type in all cases: biochemical
[1] = biological target: T1, phosphorylated VEGF-R2Δ50 (FLVK-P) (Homo sapiens, UniProt P35968, DEL940-989/E990V); assay: VEGF-R2 coupled spectrophotometric (FLVK-P) assay; conditions: Table 3; at 1 μM
T1 construct: VEGF-R2Δ50 contains residues 806-939 and 990-1171; made in house; host or cells: baculovirus/insect cells
From the text: VEGF-R2 Construct for Assay: This construct determines the ability of a test compound to inhibit tyrosine kinase activity. A construct (VEGF-R2Δ50) of the cytosolic domain of human vascular endothelial growth factor receptor 2 (VEGF-R2) lacking the 50 central residues of the 68 residues of the kinase insert domain was expressed in a baculovirus/insect cell system. Of the 1356 residues of full-length VEGF-R2, VEGF-R2Δ50 contains residues 806-939 and 990-1171, and also one point mutation (E990V) within the kinase insert domain relative to wild-type VEGF-R2. Autophosphorylation of the purified construct was performed by incubation of the enzyme at a concentration of 4 μM in the presence of 3 mM ATP and 40 mM MgCl2 in 100 mM Hepes, pH 7.5, containing 5% glycerol and 5 mM DTT, at 4° C. for 2 h. […] See Parast et al., Biochemistry, 37, 16788-16801 (1998).
Coupled Spectrophotometric (FLVK-P) Assay
The production of ADP from ATP that accompanies phosphoryl transfer was coupled to oxidation of NADH using phosphoenolpyruvate (PEP) and a system having pyruvate kinase (PK) and lactic dehydrogenase (LDH). The oxidation of NADH was monitored by following the decrease of absorbance at 340 nm (e340=6.22 cm^−1 mM^−1) using a Beckman DU 650 spectrophotometer. Assay conditions for phosphorylated VEGF-R2Δ50 (indicated as FLVK-P in the tables below) were the following: 1 mM PEP; 250 μM NADH; 50 units of LDH/mL; 20 units of PK/mL; 5 mM DTT; 5.1 mM poly(E4Y1); 1 mM ATP; and 25 mM MgCl2 in 200 mM Hepes, pH 7.5. Assay conditions for unphosphorylated VEGF-R2Δ50 (indicated as FLVK in the tables) were the following: 1 mM PEP; 250 μM NADH; 50 units of LDH/mL; 20 units of PK/mL; 5 mM DTT; 20 mM poly(E4Y1); 3 mM ATP; and 60 mM MgCl2 and 2 mM MnCl2 in 200 mM Hepes, pH 7.5. Assays were initiated with 5 to 40 nM of enzyme. Ki values were determined by measuring enzyme activity in the presence of varying concentrations of test compounds. The data were analyzed using Enzyme Kinetic and Kaleidagraph software.

FL-CHK1 = biological target: T2, FL-CHK1 (Homo sapiens, UniProt O14757); assay: CHK1 assay; parameters: CHK1^b: unit not given here; conditions: for CHK1^b: Table A combinatorial examples, footnote b not given
T2 construct: C-terminally His-tagged full-length human CHK1 (FL-CHK1); 6xHis (C); made in house; host or cells: baculovirus/insect cells
T2 sequence (O14757 1-476): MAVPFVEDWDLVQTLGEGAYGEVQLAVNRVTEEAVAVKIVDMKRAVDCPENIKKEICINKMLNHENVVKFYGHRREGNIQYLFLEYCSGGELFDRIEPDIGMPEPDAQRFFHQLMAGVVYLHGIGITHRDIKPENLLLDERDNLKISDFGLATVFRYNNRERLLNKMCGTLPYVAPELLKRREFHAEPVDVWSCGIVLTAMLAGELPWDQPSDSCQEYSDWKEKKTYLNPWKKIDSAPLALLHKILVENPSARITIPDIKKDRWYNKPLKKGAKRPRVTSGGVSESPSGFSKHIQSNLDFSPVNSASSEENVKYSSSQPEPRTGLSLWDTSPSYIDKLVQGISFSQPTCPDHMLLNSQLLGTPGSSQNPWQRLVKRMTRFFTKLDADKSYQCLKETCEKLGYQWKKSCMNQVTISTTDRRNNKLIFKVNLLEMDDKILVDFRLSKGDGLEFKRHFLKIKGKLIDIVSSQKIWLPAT
From the text: CHK-1 Construct for Assay: C-terminally His-tagged full-length human CHK1 (FL-CHK1) was expressed using the baculovirus/insect cell system. It contains 6 histidine residues (6×His-tag) at the C-terminus of the 476 amino acid human CHK1. The protein was purified by conventional chromatographic techniques.
The production of ADP from ATP that accompanies phosphoryl transfer to the synthetic substrate peptide Syntide-2 ([…]) was coupled to oxidation of NADH using phosphoenolpyruvate (PEP) through the actions of pyruvate kinase (PK) and lactic dehydrogenase (LDH). The oxidation of NADH was monitored by following the decrease of absorbance at 340 nm (ε340=6.22 cm^−1 mM^−1) using a HP8452 spectrophotometer. Typical reaction solutions contained: […]; 0.15 mM NADH; 28 units of LDH/ml; 16 units of PK/ml; 3 mM DTT; 0.125 mM Syntide-2; 0.15 mM ATP; 25 mM MgCl2 in 50 mM TRIS, pH 7.5; and 400 mM NaCl. Assays were initiated with 10 nM of FL-CHK1. Ki values were determined by measuring initial enzyme activity in the presence of varying concentrations of test compounds. The data were analyzed using Enzyme Kinetic and Kaleidagraph software.

CDK2/Cyclin A complex = CDK2/Cyclin A complex (Homo sapiens, UniProt P24941); assay: CDK2/Cyclin A assay; parameters: CDK2^c: concentration or dose not given beside the values; conditions: for CDK2^c: Table A combinatorial examples, footnote c not given
From the text: CDK2/Cyclin A Construct for Assay: CDK2 was purified using published methodology (Rosenblatt et al., J. Mol. Biol., 230, 1317-1319 (1993)) from insect cells that had been infected with a baculovirus expression vector. Cyclin A was purified from E. coli cells expressing full-length recombinant cyclin A, and a truncated cyclin A construct was generated by limited proteolysis and purified as described previously (Jeffrey et al., Nature, 376, 313-320 (Jul. 27, 1995)).
CDK2/Cyclin A and CDK4/Cyclin D Assays
Cyclin-dependent kinase activity was measured by quantifying the enzyme-catalyzed, time-dependent incorporation of radioactive phosphate from [^32P]ATP into a recombinant fragment of the retinoblastoma protein. Unless noted otherwise, assays were performed in 96-well plates in a total volume of 50 μL, in the presence of 10 mM HEPES (N-[2-hydroxyethyl]piperazine-N′-[2-ethanesulfonic acid]) (pH 7.4), 10 mM MgCl2, 25 μM adenosine triphosphate (ATP), 1 mg/mL ovalbumin, 5 μg/mL leupeptin, 1 mM dithiothreitol, 10 mM β-glycerophosphate, 0.1 mM sodium vanadate, 1 mM sodium fluoride, 2.5 mM ethylene glycol-bis(β-aminoethyl ether)-N,N,N′N′-tetraacetic acid (EGTA), 2% (v/v) dimethylsulfoxide, and 0.03-0.2 μCi [^32P]ATP. The substrate (0.3-0.5 μg) was purified recombinant retinoblastoma protein fragment (Rb) (residues 386-928 of the native retinoblastoma protein; 62.3 kDa, containing the majority of the phosphorylation sites found in the native 106-kDa protein, as well as a tag of six histidine residues for ease of purification). Reactions were initiated with CDK2 (150 nM CDK2/Cyclin A complex) or CDK4 (50 nM CDK4/Cyclin D3 complex), incubated at 30° C., and terminated after 20 minutes by the addition of ethylenediaminetetraacetic acid EDTA) to 250 mM. The phosphorylated substrate was then captured on a nitrocellulose membrane using a 96-well filtration manifold, and unincorporated radioactivity was removed by repeated washing with 0.85% phosphoric acid. Radioactivity was quantified by exposing the dried nitrocellulose membranes to a phosphorimager. Apparent Ki values were measured by assaying enzyme activity in the presence of different compound concentrations and subtracting the background radioactivity measured in the absence of enzyme. The kinetic parameters (kcat, Km for ATP) were measured for each enzyme under the usual assay conditions by determining the dependence of initial rates on ATP concentration. The data were fit to an equation for competitive inhibition using Kaleidagraph (Synergy Software), or were fit to an equation for competitive tight-binding inhibition using the software KineTic (BioKin, Ltd.). Measured Ki values for known inhibitors against CDK4 and CDK2 agreed with published IC50 values. The specific activity of CDK4 was the same whether complexed to full-length cyclin D3 or the truncated Cyclin D3 construct; both complexes also yielded very similar Ki values for selected inhibitors.

T1 sequence (P35968 with tags, fused parts or gaps DEL940-989/E990V limits assumed): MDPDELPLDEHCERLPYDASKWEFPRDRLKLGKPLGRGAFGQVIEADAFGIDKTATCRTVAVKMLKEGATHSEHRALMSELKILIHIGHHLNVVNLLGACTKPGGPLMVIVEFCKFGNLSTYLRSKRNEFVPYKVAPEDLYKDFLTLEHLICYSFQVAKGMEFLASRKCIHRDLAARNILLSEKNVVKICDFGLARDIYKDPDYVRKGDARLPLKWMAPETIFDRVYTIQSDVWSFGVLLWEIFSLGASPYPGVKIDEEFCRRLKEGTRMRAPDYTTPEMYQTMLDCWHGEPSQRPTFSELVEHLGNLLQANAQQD

Nc1nc(Nc2ccc(S(N)(=O)=O)cc2)sc1-c1nc(C(=O)O)cs1 [N(1)]
inhibition at 1 µM [1]: 24%
inhibition at 25 µM (FL-CHK1; Table 3, at 25 μM): < 0%
Ki (CDK2/Cyclin A complex; Table 3): 2700 nM

COc1cc(Nc2nc(N)c(-c3nc(-c4c(Cl)c(Cl)nc(Cl)c4Cl)cs3)s2)cc(OC)c1OC
CHK1^b (FL-CHK1): 48.8
CDK2^c (CDK2/Cyclin A complex): 10.3

COc1cc(Nc2nc(N)c(-c3nc(-c4ccccc4)cs3)s2)cc(OC)c1OC [drawing 358]
CHK1^b (FL-CHK1): 21.1
CDK2^c (CDK2/Cyclin A complex): −0.2

COc1cc(Nc2nc(N)c(-c3nc(-c4ccc(Cl)cc4Cl)cs3)s2)cc(OC)c1OC
CHK1^b (FL-CHK1): 31.3
CDK2^c (CDK2/Cyclin A complex): 3.8

COc1cc(Nc2nc(N)c(-c3nc(-c4ccc(O)cc4)cs3)s2)cc(OC)c1OC [drawing 352]
CHK1^b (FL-CHK1): 48.3
CDK2^c (CDK2/Cyclin A complex): 3

COc1cc(Nc2nc(N)c(-c3nc(-c4ccc(-c5ccc(Cl)cc5Cl)o4)cs3)s2)cc(OC)c1OC
CHK1^b (FL-CHK1): 23
CDK2^c (CDK2/Cyclin A complex): 12.4

COc1cc(Nc2nc(N)c(-c3nc(-c4cc(-c5ccc(Cl)c(Cl)c5)no4)cs3)s2)cc(OC)c1OC
CHK1^b (FL-CHK1): 0.9
CDK2^c (CDK2/Cyclin A complex): 17.5

COc1cc(Nc2nc(N)c(-c3nc(-c4c(-c5ccccc5)noc4C)cs3)s2)cc(OC)c1OC
CHK1^b (FL-CHK1): 17.9
CDK2^c (CDK2/Cyclin A complex): 13.6

COc1cc(Nc2nc(N)c(-c3nc(-c4ccccc4OC(C)=O)cs3)s2)cc(OC)c1OC
CHK1^b (FL-CHK1): −7.4
CDK2^c (CDK2/Cyclin A complex): 1.6

COc1cc(Nc2nc(N)c(-c3nc(-c4ccc[nH]4)cs3)s2)cc(OC)c1OC
CHK1^b (FL-CHK1): 31.3
CDK2^c (CDK2/Cyclin A complex): 14.3

COc1cc(OC)c(-c2csc(-c3sc(Nc4cc(OC)c(OC)c(OC)c4)nc3N)n2)c(O)c1Cl
CHK1^b (FL-CHK1): 56
CDK2^c (CDK2/Cyclin A complex): 11.8

COc1cc(Nc2nc(N)c(-c3nc(-c4ccc(F)cc4F)cs3)s2)cc(OC)c1OC [drawing 382]
CHK1^b (FL-CHK1): 32.5
CDK2^c (CDK2/Cyclin A complex): −12.1

COc1cc(Nc2nc(N)c(-c3nc(-c4cc(F)c(C)c(Cl)c4)cs3)s2)cc(OC)c1OC
CHK1^b (FL-CHK1): 30.9
CDK2^c (CDK2/Cyclin A complex): −7.5

COc1cc(Nc2nc(N)c(-c3nc(-c4ccc(F)c(F)c4)cs3)s2)cc(OC)c1OC
CHK1^b (FL-CHK1): 16.5
CDK2^c (CDK2/Cyclin A complex): −5

COc1cc(Nc2nc(N)c(-c3nc(-c4ccc(C)cc4C)cs3)s2)cc(OC)c1OC
CHK1^b (FL-CHK1): 12
CDK2^c (CDK2/Cyclin A complex): −1.2

COc1cc(Nc2nc(N)c(-c3nc(-c4ccc(C)cc4)cs3)s2)cc(OC)c1OC
CHK1^b (FL-CHK1): 3.7
CDK2^c (CDK2/Cyclin A complex): −2.1

COc1ccc2nc(-c3ccccc3)cc(-c3csc(-c4sc(Nc5cc(OC)c(OC)c(OC)c5)nc4N)n3)c2c1
CHK1^b (FL-CHK1): 21.6
CDK2^c (CDK2/Cyclin A complex): −2.7

COc1cc(Nc2nc(N)c(-c3nc(-c4ccccc4)cs3)s2)cc(OC)c1OC [drawing 372]
CHK1^b (FL-CHK1): 14.1
CDK2^c (CDK2/Cyclin A complex): −1

COc1cc(Nc2nc(N)c(-c3nc(-c4cc(C(=O)C(Cl)(Cl)Cl)n(C)c4)cs3)s2)cc(OC)c1OC
CHK1^b (FL-CHK1): 6.4
CDK2^c (CDK2/Cyclin A complex): 3.9

COc1cc(Nc2nc(N)c(-c3nc(-c4cc(-c5ccccc5)no4)cs3)s2)cc(OC)c1OC
CHK1^b (FL-CHK1): 2.7
CDK2^c (CDK2/Cyclin A complex): 11.2

COc1cc(Nc2nc(N)c(-c3nc(-c4ccc(C(F)(F)F)cc4)cs3)s2)cc(OC)c1OC
CHK1^b (FL-CHK1): 8.5
CDK2^c (CDK2/Cyclin A complex): 13.9

COc1cc(Nc2nc(N)c(-c3nc(-c4cccc([N+](=O)[O-])c4)cs3)s2)cc(OC)c1OC
CHK1^b (FL-CHK1): 8.8
CDK2^c (CDK2/Cyclin A complex): 6.6

COc1cc(Nc2nc(N)c(-c3nc(-c4cc5cc(Cl)ccc5o4)cs3)s2)cc2c1OCCO2
CHK1^b (FL-CHK1): 25.4
CDK2^c (CDK2/Cyclin A complex): −6

COc1cc(Nc2nc(N)c(-c3nc(-c4ccc(Cl)cc4)cs3)s2)cc(OC)c1OC
CHK1^b (FL-CHK1): 11.2
CDK2^c (CDK2/Cyclin A complex): 0.1

COc1cc(Nc2nc(N)c(-c3nc(-c4c(C)c(C)c(C)c(C)c4C)cs3)s2)cc(OC)c1OC
CHK1^b (FL-CHK1): 48.3
CDK2^c (CDK2/Cyclin A complex): 19.8

COc1cc(Nc2nc(N)c(-c3nc(-c4cccc(OC(=O)c5ccccc5)c4)cs3)s2)cc(OC)c1OC
CHK1^b (FL-CHK1): 23.9
CDK2^c (CDK2/Cyclin A complex): −12.3
